Results published in a melting point compilation (Tetko et al.).

| melting point [°C] | Compound |
| --- | --- |
| 279 to 281 | O=C(Nc1cccc(C(=O)O)c1)Nc1ccc(Cl)c(Cl)c1 |
| 128 to 130 | NNC(=O)C1Cc2ccccc2CN1Cc1ccccc1 (stereo not given) |
| 94 to 96 | CC(C)Cn1cc(C(F)F)c(C(=O)O)n1 |
| 188 to 192 | N#CCCn1cc(/C=C/C(=O)O)c2ccccc21 |
| 239 to 241 | NC(=O)c1ccc(Cl)nn1 |
| 111 to 113 | NS(=O)(=O)c1ccc(OCCBr)cc1 |
| 111 to 113 | O=C(CCSc1ccccc1)c1ccc(F)cc1 |
| 37 to 39 | COC(=O)c1csc(Br)c1 |
| 54 to 56 | CCc1cnc(N)s1 |
| 62 to 64 | Cc1cc(Cl)cc2cccnc12 |
| 212 to 214 | O=C(O)c1ccc(S(=O)(=O)CC(F)F)cc1 |
| 181 to 185 | CC(C)NC(=O)CSc1ccccc1C(=O)O |
| 171 to 173 | COc1cc(C(=O)O)ccc1OC(F)F |
| 183 to 185 | Cc1c[nH]nc1[N+](=O)[O-] |
| 254 to 256 | COc1ccc2sc(C(=O)O)c(C)c2c1 |
| 198 to 200 | O=C(O)CNC(=O)CNS(=O)(=O)Cc1ccc(F)cc1 |
| 48 to 50 | COC(=O)c1cc(S(=O)(=O)Cl)cnc1Cl |
| 40 to 44 | OCCc1nc2ccccc2s1 |
| 57 to 59 | COc1cc(C=NO)ccc1OC(F)F |
| 50 to 52 | CCC(=O)c1c(C)nn(C)c1C |
| 195 to 197 | Nc1nnc(CCc2ccccc2)o1 |
| 72 to 74 | COc1ccc(C=O)cc1OCCCC#N |
| 216 to 218 | Nc1nc(Cl)ccc1C(=O)O |

| melting point [°C] | Compound |
| --- | --- |
| 164 to 166 | NC(=O)CCC(NS(=O)(=O)c1cccc(C(F)(F)F)c1)C(=O)O (stereo not given) |
| 150 to 152 | O=C(O)CCNS(=O)(=O)c1ccc([N+](=O)[O-])cc1 |
| 159 to 161 | Cc1ccc(C(=O)N2CCSCC2)cc1O |
| 131 to 133 | O=C(O)CSc1nnc(-c2ccc(F)cc2)n1CC1CCCO1 (stereo not given) |
| 242 to 244 | O=C(O)c1cc2ccc(Cl)cc2[nH]1 |
| 271 to 273 | O=C1Nc2c(Br)ccc(Br)c2C1=O |
| 110 to 114 | COc1ccc(C=C2CCCc3c2nc2ccccc2c3C(=O)O)cc1OC |
| 116 to 118 | CCn1cc(N)c(=O)c(Br)c1 |
| 301 to 303 | CC(C)(C)C1CCc2c(sc3nc(S)nc(S)c23)C1 (stereo not given) |
| 61 to 63 | CC1CCN(Cc2ccc(N)cc2)CC1 |
| 169 to 171 | OCc1cc(Cl)c2nccn2c1 |
| 93 to 95 | CC(C)c1ccc2c(c1)C(=O)C(=O)N2 |
| 70 to 72 | Cc1cccc(C)c1OCCO |
| 79 to 81 | O=C(NC1CCS(=O)(=O)C1)OCC(F)(F)F (stereo not given) |
| 80 to 82 | CC(C)(C)OC(=O)NCC1CNc2ccccc21 (stereo not given) |
| 198 to 200 | O=C(O)c1ccc2c(c1)C(=O)N(Cc1ccccc1)C2=O |
| 146 to 148 | CC(Nc1ccc(Cl)cc1Cl)C(=O)O (stereo not given) |
| 62 to 64 | Clc1ccc(Br)c2ccccc12 |
| 109 to 111 | ON=Cc1ccc(OCc2ccccc2)cc1 |
| 89 to 91 | O=C(O)CCCCCCNC(=O)OCc1ccccc1 |
| 114 to 116 | Cc1c(S(=O)(=O)Cl)sc2cccc(F)c12 |
| 174 to 178 | Nc1nccc(C(F)(F)F)n1 |
| 100 to 102 | CCC(C)(C)C1CCc2c(sc(NC(=O)CCl)c2C#N)C1 (stereo not given) |

| melting point [°C] | Compound |
| --- | --- |
| 104 to 106 | Nc1ccc2nc(Cc3ccccc3)oc2c1 |
| 127 to 129 | O=C(O)CCS(=O)(=O)Nc1ccccc1 |
| 94 to 96 | CCOc1cc(C=O)cc(Br)c1OC(F)F |
| 132 to 134 | O=C(Nc1ccc([N+](=O)[O-])cc1Cl)OCC(F)(F)F |
| 285 to 287 | O=C(O)c1cccc2[nH]ncc12 |
| 237 to 239 | O=C(O)c1cccc(N2C(=O)CCC2=O)c1 |
| 111 to 113 | CCn1nc(N)cc1C1CC1 |
| 89 to 91 | CCOC(=O)c1cc2cc(N)ccc2s1 |
| 185 to 187 | C#Cc1cccc(NCC(=O)N2CCOCC2)c1 |
| 195 to 197 | NC(=O)c1ccc(N2CCNCC2)nc1 |
| 129 to 131 | Nc1cc(S(=O)(=O)N2CCCCC2)ccc1Cl |
| 33 to 35 | Fc1ccc2oc(Cl)nc2c1 |
| 191 to 193 | Cc1nc(N)cc(Cl)n1 |
| 158 to 160 | CN(C)C(=O)c1cc(N)ccc1Cl |
| 72 to 74 | O=C(O)CC1(O)CCCC1 |
| 145 to 147 | CC(O)(C(=O)O)c1cccc2ccccc12 (stereo not given) |
| 83 to 85 | Nc1cccc(S(=O)(=O)NCc2ccco2)c1 |
| 93 to 95 | Cc1ccc(-c2csc(Cl)n2)cc1 |
| 134 to 136 | Cc1c(Cl)ccc2ccc(N)nc12 |
| 111 to 114 | Cc1cc(O)ccc1C(C)C |
| 126 to 128 | CS(=O)(=O)N1CCc2ccccc2C1CC(=O)O (stereo not given) |
| 220 to 223 | O=C(O)c1ccc2c3c(cccc13)CC2 |
| 167 to 169 | Cc1nn(-c2ccc(F)cc2)nc1C(=O)O |

| melting point [°C] | Compound |
| --- | --- |
| 226 to 228 | O=C(Cc1ccc(Br)cc1)Nc1ccsc1C(=O)O |
| 178 to 183 | O=C(O)C1CCN(C(=O)Nc2ccccc2)CC1 |
| 79 to 81 | COC(=O)c1cncc(I)c1 |
| 87 to 89 | O=Cc1cnc(-c2ccccc2)s1 |
| 114 to 115 | Nc1cccc(C(=O)Nc2cccc(C(F)(F)F)c2)c1 |
| 73 to 75 | O=[N+]([O-])c1ccc(OCC(F)(F)F)cc1 |
| 129 to 131 | CN(C)C(=O)COc1ccc(N)cc1 |
| 105 to 109 | O=C(O)Cc1csc(-c2ccccc2Cl)n1 |
| 78 to 82 | Cc1cc(C)c(C(=O)O)c(Cl)n1 |
| 119 to 121 | CC(Cl)C(=O)NC1CCN(Cc2ccccc2)CC1 (stereo not given) |
| 161 to 163 | Nc1ccc(NS(=O)(=O)c2c(Cl)cccc2Cl)cc1 |
| 83 to 85 | Nc1ccnn1Cc1ccc(Br)s1 |
| 117 to 119 | CCC(C)C(NC(=O)c1ccccc1)C(=O)O (stereo not given) |
| 101 to 103 | OC1CCCCc2ccccc21 (stereo not given) |
| 177 to 179 | O=C(O)c1cc(F)cc([N+](=O)[O-])c1Br |
| 249 to 251 | Cc1cc(S(N)(=O)=O)sc1C(=O)O |
| 190 to 192 | Cc1ccc(C(=O)NC(CC(=O)O)c2ccccc2)cc1 (stereo not given) |
| 164 to 165 | CN(CC(=O)Nc1ccc(Cl)c(C(F)(F)F)c1)C(=O)CCl |
| 125 to 127 | CCc1ncc(N)cn1 |
| 145 to 147 | NC(=O)c1c(N)sc2c1-c1ccccc1CCC2 |
| 269 to 271 | COc1ccc2c(O)c(C(=O)O)cnc2c1 |
| 52 to 54 | CC(O)C1CCCNC1 (stereo not given) |
| 169 to 171 | O=C(O)c1ccc(Oc2cc(Cl)ccc2Cl)cc1 |

| melting point [°C] | Compound |
| --- | --- |
| 72 to 73 | Cc1n[nH]c(C)c1S(=O)(=O)N1CCCCC1 |
| 134 to 136 | Cc1ccc(Cn2nc(C)c(CCC(=O)O)c2C)cc1 |
| 40 to 42 | CCOC(=O)COc1cccc(Br)c1 |
| 53 to 55 | O=C1CCC(=O)N1CCBr |
| 256 to 258 | NC(=O)c1c[nH]nn1 |
| 261 to 263 | CNc1ccc([N+](=O)[O-])cc1C(=O)O |
| 93 to 95 | COc1ccc2c(c1)OCC(C#N)=C2 |
| 141 to 143 | Nc1nnc(SCc2cccs2)s1 |
| 322 to 324 | Cc1c(Cl)cccc1-n1c(S)nnc1-c1ccncc1 |
| 162 to 164 | CCCCOc1ccc(C(N)=O)cc1 |
| 250 to 252 | CCC1Nc2ccc(C(=O)O)cc2NC1=O (stereo not given) |
| 226 to 228 | CCOc1ccc2c(c1)NC(=O)C2=O |
| 83 to 85 | O=C(O)CCc1cc(Cl)ccc1Br |
| 141 to 146 | Nc1cc(C(=O)O)cc(C(F)(F)F)c1 |
| 76 to 78 | OCCNc1ncccn1 |
| 146 to 148 | O=C(O)C1CCN(C(=O)c2ccccn2)CC1 |
| 272 to 274 | O=c1[nH]cnc2ccc(I)cc12 |
| 263 to 265 | O=C1CCNc2ncccc2N1 |
| 193 to 195 | Nc1nnc(Cc2cccc(F)c2)s1 |
| 142 to 144 | CC(=O)Nc1cccc(N)c1C |
| 119 to 121 | CC(=O)c1cc2nc(C)ccc2o1 |
| 62 to 64 | COc1cccc(C(C=O)C=O)c1 |
| 195 to 197 | N#Cc1cn(-c2ccc(N)cc2)nc1N |

| melting point [°C] | Compound |
| --- | --- |
| 259 to 261 | Nc1nnc(-c2ccc([N+](=O)[O-])o2)o1 |
| 129 to 131 | Cc1nn(-c2ccc(F)cc2F)c(C)c1C=O |
| 44 to 46 | NCc1ccnc(-n2cccn2)c1 |
| 221 to 223 | COc1ccc2nc(C)c(C(=O)O)cc2c1 |
| 161 to 165 | Cc1cc(C)cc(OCC(=O)N2Cc3ccccc3CC2C(=O)O)c1 (stereo not given) |
| 93 to 95 | Cc1cc(F)c(C(=O)CCl)cc1F |
| 144 to 146 | O=C(O)c1sccc1S(=O)(=O)N1CCSCC1 |
| 183 to 185 | Nc1nc2ccc(Br)cn2n1 |
| 144 to 146 | NNC1=NC(=O)C(=O)N1 |
| 42 to 44 | ClCc1nc(-c2ccc(Br)s2)no1 |
| 231 to 232 | Cc1ncccc1C(=O)O |
| 199 to 201 | O=C(O)c1cc(-c2ccccc2)nc2onc(C3CC3)c12 |
| 196 to 198 | Nc1nnc(SCC(=O)O)s1 |
| 138 to 140 | CC1(C)CCc2c(sc(N)c2C(=O)N2CCOCC2)C1 |
| 199 to 201 | O=C(O)c1cnc(-c2ccccn2)s1 |
| 156 to 158 | Cc1cccc(C2(C(=O)O)CCCC2)c1 |
| 177 to 179 | CS(=O)(=O)c1cccc(C(N)=O)c1 |
| 188 to 190 | O=C(O)COc1ccc2oc3c(c2c1)CCCC3 |
| 49 to 51 | O=C(O)CC1CCCCO1 (stereo not given) |
| 31 to 33 | CC(C)Oc1ccc(CCCO)cc1 |
| 196 to 198 | CS(=O)(=O)Nc1ccc(-c2csc(N)n2)cc1 |
| 133 to 135 | NC(=NO)C1CCCc2ccccc21 (stereo not given) |

| Compound | melting point [°C] |
| --- | --- |
| N#Cc1nnc[nH]1 | 188 to 190 |
| O=C(O)C1(Br)CCC1 | 40 to 42 |
| Cc1cc(C(=O)CBr)ccc1O | 119 to 121 |
| NC(=O)C(Cl)c1cccc(Br)c1 (stereo not given) | 109 to 111 |
| O=C1CN(Cc2ccnc(Cl)c2)CCN1 | 143 to 145 |
| Cc1cc(N2CCN(C)CC2)ccc1N | 100 to 102 |
| O=C(CCl)c1sccc1Br | 75 to 77 |
| NCC(O)c1ccccc1F (stereo not given) | 62 to 64 |
